The values below come from ChEMBL document CHEMBL2074433, “Specificity of doxorubicin versus rhodamine-123 in assessing P-glycoprotein functionality in the LLC-PK1, LLC-PK1:MDR1 and Caco-2 cell lines” (Eur J Pharm Sci, 2000).

This series concerns the target ATP-dependent translocase ABCB1 (Homo sapiens, UniProt P08183). Briefly: TP_TRANSPORTER: inhibition of Doxorubicin transepithelial transport (basal to apical) (Doxorubicin: 3 uM, Quinidine: 50 uM) in MDR1-expressing LLC-PK1 cells. Particulars: pig, llc-pk1, 50 µM. The series is classed as functional, cell-based.

ATP-dependent translocase ABCB1, sequence (P08183 whole entry): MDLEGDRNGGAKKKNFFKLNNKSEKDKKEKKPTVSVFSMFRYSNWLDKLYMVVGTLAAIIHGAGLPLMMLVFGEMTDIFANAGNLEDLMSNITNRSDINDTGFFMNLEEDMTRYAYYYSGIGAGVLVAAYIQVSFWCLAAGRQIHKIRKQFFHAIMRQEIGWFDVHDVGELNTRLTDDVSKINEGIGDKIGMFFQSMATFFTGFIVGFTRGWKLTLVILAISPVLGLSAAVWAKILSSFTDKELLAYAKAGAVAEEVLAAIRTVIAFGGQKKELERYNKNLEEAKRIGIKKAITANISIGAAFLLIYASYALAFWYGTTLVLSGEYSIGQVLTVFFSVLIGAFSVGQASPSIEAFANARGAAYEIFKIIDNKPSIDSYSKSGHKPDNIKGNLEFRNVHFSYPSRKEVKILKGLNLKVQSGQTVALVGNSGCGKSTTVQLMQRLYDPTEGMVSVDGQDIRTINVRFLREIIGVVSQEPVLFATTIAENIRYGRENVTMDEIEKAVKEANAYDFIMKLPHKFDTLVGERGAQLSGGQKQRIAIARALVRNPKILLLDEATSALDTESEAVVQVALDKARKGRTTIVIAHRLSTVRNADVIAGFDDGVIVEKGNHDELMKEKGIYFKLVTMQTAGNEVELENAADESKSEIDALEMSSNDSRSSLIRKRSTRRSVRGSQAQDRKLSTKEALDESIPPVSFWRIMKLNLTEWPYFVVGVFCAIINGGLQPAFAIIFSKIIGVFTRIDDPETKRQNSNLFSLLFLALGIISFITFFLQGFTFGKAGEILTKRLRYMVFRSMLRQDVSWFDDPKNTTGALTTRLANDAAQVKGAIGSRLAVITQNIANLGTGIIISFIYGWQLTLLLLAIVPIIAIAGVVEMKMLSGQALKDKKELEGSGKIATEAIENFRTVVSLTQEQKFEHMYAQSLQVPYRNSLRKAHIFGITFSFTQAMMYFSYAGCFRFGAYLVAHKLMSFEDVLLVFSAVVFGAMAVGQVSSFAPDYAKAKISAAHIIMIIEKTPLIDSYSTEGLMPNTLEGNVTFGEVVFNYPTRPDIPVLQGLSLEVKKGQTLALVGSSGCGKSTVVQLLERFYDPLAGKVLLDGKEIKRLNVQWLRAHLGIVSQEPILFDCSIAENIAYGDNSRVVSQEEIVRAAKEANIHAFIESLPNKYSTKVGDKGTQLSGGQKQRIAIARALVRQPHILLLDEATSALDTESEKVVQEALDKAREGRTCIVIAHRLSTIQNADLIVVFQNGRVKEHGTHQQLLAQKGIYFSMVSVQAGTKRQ

As to `C=C[C@H]1C[N@@]2CC[C@H]1C[C@H]2[C@H](O)c1ccnc2ccc(OC)cc12` [QUININE], the Activity entry was “is not an inhibitor [-]”.
